# Assay results as given in article PMC6504913 (Angewandte Chemie (International ed. in English), 2018).
# Legend:
# [1] = assay type: physicochemical; conditions: pH 7.4 aqueous buffer
# [2] = tested on: RAW 264.7 cells; test: LPS-induced NO2^– formation in macrophage RAW 264.7 cells; assay type: cell-based; conditions: 25 μM pretreatment 6 h, then LPS 1.0 μg/mL 18 h
Compound,stability in aqueous buffer (PNA formation) [1],effect on LPS-induced NO2^– production [2]
n-butylthiocarbamate [n-BuTCM-1],stable,–
C1COCCN1.COc1ccc(P(=S)(S)N2CCOCC2)cc1 (centres unmarked) [GYY4137],–,less pronounced effect
